Holding throughout (experiment): KinaseProfiler kinase assay
Assay type in all cases: biochemical

The target in assay [1] is Abl(h) (Homo sapiens, UniProt P00519).
Assay [2] has as its target T1, Aurora-A(h) (Homo sapiens, UniProt O14965).
T1 sequence (O14965 1-403): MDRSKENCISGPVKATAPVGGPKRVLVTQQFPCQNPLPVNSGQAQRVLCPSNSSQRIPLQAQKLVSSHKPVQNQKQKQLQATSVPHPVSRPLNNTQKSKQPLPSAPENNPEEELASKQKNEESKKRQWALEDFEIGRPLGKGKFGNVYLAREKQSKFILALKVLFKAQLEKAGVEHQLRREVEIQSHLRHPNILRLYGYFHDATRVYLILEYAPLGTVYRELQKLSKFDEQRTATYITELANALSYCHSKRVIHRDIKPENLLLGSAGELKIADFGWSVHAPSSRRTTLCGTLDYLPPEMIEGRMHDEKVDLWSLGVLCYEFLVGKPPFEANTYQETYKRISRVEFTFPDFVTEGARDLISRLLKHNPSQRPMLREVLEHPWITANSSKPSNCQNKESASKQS
Particulars: read-out: % Inhibition @1 μM Auroro-A. The method, then: (§1) This example tests the inhibitory properties of representative compounds of the invention in c-Src kinase, Aurora-A kinase, Flt3 kinase, Ret kinase and TrkA Kinase assays (see, Daniele Fancelli et al, J. Med. Chem., 2006, 49 (24), pp 7247-7251). The KinaseProfiler™ Service Assay Protocols (Millipore) was used to test the kinase inhibiting activity of novel compounds from this invention. To do this, the buffer composition was as: 20 mM MOPS, 1 mM EDTA, 0.01% Brij-35, 5% Glycerol, 0.1% β-mercaptoethanol, 1 mg/mL BSA. Test compounds were initially dissolved in DMSO at the desired concentration, then serially diluted to the kinase assay buffer. In a final reaction volume of 25 μL, Aurora-A(h) (5-10 mU) is incubated with 8 mM MOPS pH 7.0, 0.2 mM EDTA, 200 μM LRRASLG (Kemptide), 10 mM MgAcetate and [γ^33P-ATP]. The reaction was initiated by the addition of the MgATP mix. After incubation for 40 minute at room temperature, the reaction was stopped by addition of 5 μL of a 3% phosphoric acid solution. 10 μL of the reaction was then spotted onto a P30 filtermat and washed three times for 5 minutes in 50 mM phosphoric acid and once in methanol prior to drying and scintillation counting. Wells containing substrate but no kinase and wells containing a phosphopeptide control were used to set 0% and 100% phosphorylation value, respectively.
(§2) The Kinase Hotspot℠ kinase assay was also used to test the compounds for IC50 or % inhibitions (Reaction Biology Corp.). Inhibitory IC50 values were determined by titration of compound at the optimal kinase concentration (Kinase EC50).

The target of assay [3] is T2, Flt3(h) (Homo sapiens, UniProt P36888).
T2 sequence (P36888 27-993): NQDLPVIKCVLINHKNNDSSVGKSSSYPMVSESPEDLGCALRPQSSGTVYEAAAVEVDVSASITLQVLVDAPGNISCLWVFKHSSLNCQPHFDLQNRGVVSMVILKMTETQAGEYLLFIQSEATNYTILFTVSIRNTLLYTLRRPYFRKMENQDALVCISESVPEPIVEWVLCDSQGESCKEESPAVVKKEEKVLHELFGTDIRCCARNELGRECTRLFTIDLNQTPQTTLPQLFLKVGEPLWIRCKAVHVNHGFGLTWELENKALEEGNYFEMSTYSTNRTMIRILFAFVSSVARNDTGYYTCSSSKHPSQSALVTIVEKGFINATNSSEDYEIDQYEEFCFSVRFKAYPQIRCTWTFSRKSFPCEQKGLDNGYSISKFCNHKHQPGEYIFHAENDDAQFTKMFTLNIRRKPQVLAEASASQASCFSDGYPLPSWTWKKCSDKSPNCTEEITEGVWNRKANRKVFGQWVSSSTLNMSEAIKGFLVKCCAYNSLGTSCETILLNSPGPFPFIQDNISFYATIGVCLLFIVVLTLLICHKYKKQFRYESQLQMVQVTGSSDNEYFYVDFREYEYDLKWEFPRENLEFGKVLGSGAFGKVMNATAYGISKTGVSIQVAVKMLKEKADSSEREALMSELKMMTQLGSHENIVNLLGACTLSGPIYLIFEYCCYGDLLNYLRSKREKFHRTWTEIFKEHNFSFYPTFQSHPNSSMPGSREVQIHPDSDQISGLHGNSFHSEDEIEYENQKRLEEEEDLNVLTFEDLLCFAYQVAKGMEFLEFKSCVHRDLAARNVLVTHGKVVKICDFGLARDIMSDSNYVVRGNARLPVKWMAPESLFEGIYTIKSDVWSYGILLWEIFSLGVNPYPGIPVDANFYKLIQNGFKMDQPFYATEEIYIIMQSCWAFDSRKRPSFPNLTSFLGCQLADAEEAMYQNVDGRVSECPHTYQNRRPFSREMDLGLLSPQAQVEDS
The method, then:
as §1, §2

Assay [4] deals with Ret(h) (Homo sapiens, UniProt P07949). The method, then:
as §1, §2

For assay [5], the target named is cSRC(h) (Homo sapiens, UniProt P12931). The method, then:
as §1, §2

Assay [6] has as its target KDR(h) (Homo sapiens, UniProt P35968).

Chain of Ret(h) (P07949 29-1114): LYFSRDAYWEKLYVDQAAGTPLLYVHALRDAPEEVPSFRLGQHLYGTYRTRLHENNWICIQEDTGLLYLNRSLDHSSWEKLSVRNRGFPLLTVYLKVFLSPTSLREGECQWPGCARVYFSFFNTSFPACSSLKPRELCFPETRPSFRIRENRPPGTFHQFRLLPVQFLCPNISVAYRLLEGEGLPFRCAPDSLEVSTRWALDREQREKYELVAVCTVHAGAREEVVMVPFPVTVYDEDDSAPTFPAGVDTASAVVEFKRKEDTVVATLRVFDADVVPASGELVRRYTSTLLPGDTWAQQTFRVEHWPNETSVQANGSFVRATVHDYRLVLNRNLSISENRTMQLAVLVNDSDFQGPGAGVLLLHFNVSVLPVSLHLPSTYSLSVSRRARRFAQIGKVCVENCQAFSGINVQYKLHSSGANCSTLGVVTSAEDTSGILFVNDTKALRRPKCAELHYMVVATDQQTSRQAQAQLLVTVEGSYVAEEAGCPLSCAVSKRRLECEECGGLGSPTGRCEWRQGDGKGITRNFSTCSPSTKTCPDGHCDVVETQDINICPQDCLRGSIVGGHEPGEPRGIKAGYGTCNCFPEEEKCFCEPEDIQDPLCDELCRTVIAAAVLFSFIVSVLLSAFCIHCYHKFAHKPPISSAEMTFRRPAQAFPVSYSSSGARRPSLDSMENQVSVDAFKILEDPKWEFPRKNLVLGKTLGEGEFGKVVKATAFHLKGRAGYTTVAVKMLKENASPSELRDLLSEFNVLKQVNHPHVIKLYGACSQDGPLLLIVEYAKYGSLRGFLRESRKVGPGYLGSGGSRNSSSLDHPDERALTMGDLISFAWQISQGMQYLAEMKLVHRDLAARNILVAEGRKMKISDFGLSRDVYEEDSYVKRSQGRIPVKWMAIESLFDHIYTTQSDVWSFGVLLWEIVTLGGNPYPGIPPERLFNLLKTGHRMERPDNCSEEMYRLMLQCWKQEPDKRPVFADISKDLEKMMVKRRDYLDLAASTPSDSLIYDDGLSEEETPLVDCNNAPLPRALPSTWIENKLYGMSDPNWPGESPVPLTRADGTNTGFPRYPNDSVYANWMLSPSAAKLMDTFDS
Chain of cSRC(h) (P12931 whole entry): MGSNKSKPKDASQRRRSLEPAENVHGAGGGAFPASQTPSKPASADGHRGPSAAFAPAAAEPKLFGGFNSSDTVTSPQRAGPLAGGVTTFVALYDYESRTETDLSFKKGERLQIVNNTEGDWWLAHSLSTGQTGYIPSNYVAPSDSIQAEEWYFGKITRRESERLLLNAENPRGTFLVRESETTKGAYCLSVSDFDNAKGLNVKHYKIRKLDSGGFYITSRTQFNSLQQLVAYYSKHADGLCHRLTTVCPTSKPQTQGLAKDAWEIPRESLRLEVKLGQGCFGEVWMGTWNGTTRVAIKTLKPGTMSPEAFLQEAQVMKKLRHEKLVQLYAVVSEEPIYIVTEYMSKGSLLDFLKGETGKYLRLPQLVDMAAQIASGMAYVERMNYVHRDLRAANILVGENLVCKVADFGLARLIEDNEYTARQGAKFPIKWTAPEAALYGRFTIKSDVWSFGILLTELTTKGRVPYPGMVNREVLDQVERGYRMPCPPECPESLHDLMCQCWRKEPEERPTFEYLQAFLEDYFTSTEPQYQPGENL
Chain of Abl(h) (P00519 whole entry): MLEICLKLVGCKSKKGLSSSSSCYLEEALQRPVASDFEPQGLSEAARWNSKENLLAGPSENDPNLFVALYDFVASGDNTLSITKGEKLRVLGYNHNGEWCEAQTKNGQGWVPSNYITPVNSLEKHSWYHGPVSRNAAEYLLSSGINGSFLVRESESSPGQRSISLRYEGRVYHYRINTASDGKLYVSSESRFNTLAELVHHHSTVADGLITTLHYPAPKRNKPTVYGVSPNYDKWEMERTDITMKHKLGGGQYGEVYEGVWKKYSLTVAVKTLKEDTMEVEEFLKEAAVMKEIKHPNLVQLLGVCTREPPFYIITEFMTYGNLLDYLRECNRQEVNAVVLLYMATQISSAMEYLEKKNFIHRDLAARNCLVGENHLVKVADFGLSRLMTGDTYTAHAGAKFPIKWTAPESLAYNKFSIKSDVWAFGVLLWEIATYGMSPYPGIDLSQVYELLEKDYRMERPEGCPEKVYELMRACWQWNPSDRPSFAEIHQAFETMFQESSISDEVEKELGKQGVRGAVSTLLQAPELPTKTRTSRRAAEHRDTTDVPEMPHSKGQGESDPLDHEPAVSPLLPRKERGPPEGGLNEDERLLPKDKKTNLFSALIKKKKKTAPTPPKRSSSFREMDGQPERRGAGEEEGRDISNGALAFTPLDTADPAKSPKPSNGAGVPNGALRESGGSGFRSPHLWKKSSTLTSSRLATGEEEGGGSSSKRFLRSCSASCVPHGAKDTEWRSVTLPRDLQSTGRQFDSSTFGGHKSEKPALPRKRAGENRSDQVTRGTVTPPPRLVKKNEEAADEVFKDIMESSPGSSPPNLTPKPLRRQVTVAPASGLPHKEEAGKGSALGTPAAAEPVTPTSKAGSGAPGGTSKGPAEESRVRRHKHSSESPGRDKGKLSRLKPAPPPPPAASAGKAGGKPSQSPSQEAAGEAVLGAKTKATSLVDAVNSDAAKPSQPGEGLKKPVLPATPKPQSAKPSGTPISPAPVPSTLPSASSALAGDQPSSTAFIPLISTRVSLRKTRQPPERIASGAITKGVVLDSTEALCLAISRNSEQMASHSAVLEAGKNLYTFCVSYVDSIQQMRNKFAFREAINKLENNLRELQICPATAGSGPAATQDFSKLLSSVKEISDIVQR
Chain of KDR(h) (P35968 20-1356): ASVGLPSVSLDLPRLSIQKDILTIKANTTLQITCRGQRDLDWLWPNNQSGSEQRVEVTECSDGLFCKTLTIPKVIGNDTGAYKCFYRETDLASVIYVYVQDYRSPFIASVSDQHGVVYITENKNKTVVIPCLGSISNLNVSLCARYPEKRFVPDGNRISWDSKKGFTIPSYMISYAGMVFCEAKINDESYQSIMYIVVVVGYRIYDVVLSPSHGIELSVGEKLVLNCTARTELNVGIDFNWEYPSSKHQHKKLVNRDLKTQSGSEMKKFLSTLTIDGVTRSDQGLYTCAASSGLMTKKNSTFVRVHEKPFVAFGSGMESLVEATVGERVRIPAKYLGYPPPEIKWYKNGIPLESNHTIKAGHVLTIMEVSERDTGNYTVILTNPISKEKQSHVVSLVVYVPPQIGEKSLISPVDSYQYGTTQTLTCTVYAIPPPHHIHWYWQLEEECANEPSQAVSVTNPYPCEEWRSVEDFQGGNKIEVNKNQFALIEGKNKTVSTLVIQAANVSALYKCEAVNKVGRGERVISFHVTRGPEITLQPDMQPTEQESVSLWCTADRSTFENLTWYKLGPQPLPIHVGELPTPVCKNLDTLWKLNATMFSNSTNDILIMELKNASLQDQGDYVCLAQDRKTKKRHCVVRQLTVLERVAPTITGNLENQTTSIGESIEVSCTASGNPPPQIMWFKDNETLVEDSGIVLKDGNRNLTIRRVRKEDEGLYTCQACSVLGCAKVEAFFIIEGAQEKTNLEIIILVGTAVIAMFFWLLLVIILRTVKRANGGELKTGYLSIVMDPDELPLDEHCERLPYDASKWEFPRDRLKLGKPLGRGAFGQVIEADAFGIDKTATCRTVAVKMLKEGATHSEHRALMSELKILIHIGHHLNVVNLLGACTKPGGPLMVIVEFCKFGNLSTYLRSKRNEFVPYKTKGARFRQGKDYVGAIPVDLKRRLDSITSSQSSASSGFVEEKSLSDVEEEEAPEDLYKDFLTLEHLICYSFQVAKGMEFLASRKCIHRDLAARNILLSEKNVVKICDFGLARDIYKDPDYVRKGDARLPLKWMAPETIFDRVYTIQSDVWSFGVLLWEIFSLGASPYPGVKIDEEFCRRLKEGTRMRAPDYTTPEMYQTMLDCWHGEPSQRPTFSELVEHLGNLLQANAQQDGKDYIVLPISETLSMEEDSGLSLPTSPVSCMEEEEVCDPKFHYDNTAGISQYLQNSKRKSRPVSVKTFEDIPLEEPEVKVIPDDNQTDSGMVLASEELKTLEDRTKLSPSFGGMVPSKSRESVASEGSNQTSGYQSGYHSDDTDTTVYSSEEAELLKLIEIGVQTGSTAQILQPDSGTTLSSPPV

Broadly, the inhibition is the relative decrease from the control value, in per cent. Regarding `C/C=C/c1cc(Nc2cc(N3CCC(OC)CC3)nc(Oc3cc(F)c4[nH]c(C)cc4c3F)n2)n[nH]1` [Compound 96], the inhibition at 1 µM in assay [1] was 110%; in assay [2], 98%; in assay [3], 99%; in assay [4], 102%; in assay [5], 101%; in assay [6], 95%.

For `COCCN1CCN(c2cc(Nc3cc(C4CC4)[nH]n3)nc(Oc3ccc4[nH]c(C)cc4c3F)n2)CC1` [Compound 28], the inhibition at 1 µM in assay [1] turned out to be 108%; in assay [2], 101%; in assay [3], 100%; in assay [4] it was 101%; in assay [5], 96%; in assay [6] it was 89%.

Consider `C/C=C/c1cc(Nc2cc(N3CCC(O)C3)nc(Oc3ccc4[nH]c(C)cc4c3F)n2)n[nH]1` (stereo not drawn) [Compound 61], for which the inhibition at 1 µM in assay [1] came out at 112%; in assay [2], 95%; in assay [3] it was 100%; in assay [4], 102%; in assay [5], 100%; in assay [6], 97%.

As for `Cc1cc2c(F)c(Oc3nc(Nc4cc(C5CC5)[nH]n4)cc(N4CCN(CCN(C)C)CC4)n3)ccc2[nH]1` [Compound 42], the inhibition at 1 µM came out at 110% in assay [1]; 93% in assay [2]; 100% in assay [3]; 102% in assay [4]; 101% in assay [5]; 96% in assay [6].

On to `COC1CCN(c2cc(Nc3cc(C4CC4)[nH]n3)nc(Oc3ccc4[nH]c(C)cc4c3F)n2)C1` (stereo not drawn) [Compound 16], for which the inhibition at 1 µM in assay [1] turned out to be 103%; in assay [2], 101%; in assay [3], 98%; in assay [4] it was 101%; in assay [5] it was 100%; in assay [6], 92%.

As for `C/C=C/c1cc(Nc2cc(N3CCC(OC)C3)nc(Oc3cc(F)c4[nH]c(C)cc4c3F)n2)n[nH]1` (stereo not drawn) [Compound 93], the inhibition at 1 µM is 111% in assay [1]; 102% in assay [2]; 100% in assay [3]; 102% in assay [4]; 101% in assay [5]; 95% in assay [6].

As to `C/C=C/c1cc(Nc2cc(N3CCC(O)C3)nc(Oc3cc(F)c4[nH]c(C)cc4c3F)n2)n[nH]1` (stereo not drawn) [Compound 92], the inhibition at 1 µM in assay [1] came out at 111%; in assay [2] it was 100%; in assay [3], 100%; in assay [4] it was 102%; in assay [5], 100%; in assay [6], 96%.

As to `Cc1cc2c(F)c(Oc3nc(Nc4cc(C5CC5)[nH]n4)cc(N4CCC(F)CC4)n3)ccc2[nH]1` [Compound 22], the inhibition at 1 µM in assay [1] was 108%; in assay [2] it was 101%; in assay [3] it was 100%; in assay [4] it was 101%; in assay [5], 100%; in assay [6] it was 92%.

Regarding `Cc1cc(Nc2cc(N3CCN(CCO)CC3)nc(Oc3cc(F)c4[nH]c(C)cc4c3F)n2)n[nH]1` [Compound 105], the inhibition at 1 µM in assay [1] was determined as 112%; in assay [2], 98%; in assay [3] it was 99%; in assay [4] it was 101%; in assay [5], 96%; in assay [6], 91%.

Take `COCC1CCN(c2cc(Nc3cc(C4CC4)[nH]n3)nc(Oc3ccc4[nH]c(C)cc4c3F)n2)C1` (stereo not drawn) [Compound 44]: the inhibition at 1 µM in assay [1] amounted to 94%; in assay [2] it was 97%; in assay [3], 100%; in assay [4] it was 100%; in assay [5], 102%; in assay [6], 90%.

With `Cc1cc2c(F)c(Oc3nc(Nc4cc(C5CC5)[nH]n4)cc(N4CCC(O)CC4)n3)ccc2[nH]1` [Compound 21], the inhibition at 1 µM in assay [1] stood at 107%; in assay [2], 100%; in assay [3] it was 101%; in assay [4], 100%; in assay [5], 98%; in assay [6] it was 87%.

With `Cc1cc2c(F)c(Oc3nc(Nc4cc(C5CC5)[nH]n4)cc(N4CCOCC4)n3)cc(F)c2[nH]1` [Compound 84], the inhibition at 1 µM in assay [1] was found to be 103%; in assay [2] it was 98%; in assay [3] it was 100%; in assay [4], 100%; in assay [5], 100%; in assay [6] it was 93%.

For `Cc1cc2c(F)c(Oc3nc(Nc4cc(C5CC5)[nH]n4)cc(N4CCOCC4)n3)ccc2n1C` [Compound 123], the inhibition at 1 µM in assay [1] amounted to 114%; in assay [2], 100%; in assay [3], 101%; in assay [4], 102%; in assay [5], 104%; in assay [6], 88%.

For the compound `CCN1CCN(c2cc(Nc3cc(C)[nH]n3)nc(Oc3cc(F)c4[nH]c(C)cc4c3F)n2)CC1` [Compound 103], the inhibition at 1 µM in assay [1] is 113%; in assay [2], 97%; in assay [3] it was 99%; in assay [4], 101%; in assay [5], 96%; in assay [6] it was 91%.

Take `Cc1cc2c(F)c(Oc3nc(Nc4cc(C5CC5)[nH]n4)cc(N4CCNC(CO)C4)n3)ccc2[nH]1` (stereo not drawn) [Compound 43]: the inhibition at 1 µM in assay [1] amounted to 111%; in assay [2] it was 87%; in assay [3], 99%; in assay [4] it was 102%; in assay [5] it was 101%; in assay [6], 95%.

For `C/C=C/c1cc(Nc2cc(N3CCOCC3)nc(Oc3ccc4c(cc(C)n4C)c3F)n2)n[nH]1` [Compound 121], the inhibition at 1 µM in assay [1] amounted to 116%; in assay [2], 91%; in assay [3], 102%; in assay [4], 102%; in assay [5] it was 104%; in assay [6], 92%.

For `CC(=O)N1CCN(c2cc(Nc3cc(C4CC4)[nH]n3)nc(Oc3ccc4[nH]c(C)cc4c3F)n2)CC1` [Compound 18], the inhibition at 1 µM was 107% in assay [1]; 100% in assay [2]; 100% in assay [3]; 97% in assay [4]; 99% in assay [5]; 93% in assay [6].

These data come from patent US10245261B2, “Substituted indol-5-ol derivatives and their therapeutic applications” (NantBioScience, Inc., priority 2013, dated 2019).
